Test results taken from patent publication US12161647B2, “Treating hearing loss” (Massachusetts Eye and Ear Infirmary, priority 2012, dated 2024).

Tested on: Hes5 mRNA
Test: qRT-PCR of Hes5 in deafened mature cochlea after round window administration
Type: in vivo, mouse
Description: 4-week-old mice were exposed free-field, awake and unrestrained, in a small reverberant chamber (22). Acoustic trauma was produced by a 2 h exposure to an 8-16 kHz octave band noise presented at 116 dB SPL. The exposure stimulus was generated by a custom white-noise source, filtered (Brickwall Filter with a 60 dB/octave slope), amplified (Crown power amplifier), and delivered (JBL compression driver) through an exponential horn fitted securely to a hole in the top of a reverberant box.
4-week-old mice weighing 12 to 16 g were used. Before surgery, the animals were anesthetized with ketamine (20 mg/kg, i.p.) and xylazine (100 mg/kg, i.p.), and an incision was made posterior to the pinna near the external meatus after local administration of lidocaine (1%). […]
The organs of Corti were dissected in HBSS (Invitrogen) and stored in RNAlater (Ambion) at −80° C. until further use. […] Samples were analyzed in 96 wells in triplicate by qPCR (Applied Biosystems 7900HT), and PCR thermal cycling conditions were as follows: initial denaturation at 95° C. for 2 min, denaturation at 95° C. for 15 s, annealing/extension at 60° C. for 1 min for 45 cycles. […] Relative gene expression was analyzed by using the ΔΔCT method. Gene expression was calculated relative to 18S RNA, and the amount of cDNA applied was adjusted so that the Ct value for 18S RNA was between 8 and 11. […]

`C[C@H](NC(=O)[C@@H](O)c1cc(F)cc(F)c1)C(=O)N[C@@H]1C(=O)N(C)c2ccccc2-c2ccccc21` [LY411575, N-2((2S)-2-(3,5-difluorophenyl)-2-hydroxyethanoyl)-N1-((7S)-5-methyl-6-oxo-6,7-dihydro-5H-dibenzo[b,d]azepin-7-yl)-l-alaninamide] was tested, and the “noise-induced Hes5 mRNA induction” value (round window niche, 4 mM 1 μl, 1 d after noise, at 1 d, p<0.01 vs control cochlea) was “completely blocked” and the Hes5 expression level (three days after LY411575 treatment) was “unchanged from the control cochlea”.
